According to paper PMC3961306, “Comparison of the Cancer Gene Targeting and Biochemical Selectivities of All Targeted Kinase Inhibitors Approved for Clinical Use” (PLoS ONE, 2014):

What was measured:
Test in all cases: Kinase profiling in a biochemical assay panel (mobility shift assays and ELISA), %-inhibition at 1 μM; selectivity entropy
[1] = molecular target: panel of more than 300 wild-type and mutant kinases (313 kinase panel) (Homo sapiens, UniProt P12931)
[2] = molecular target: panel of more than 300 wild-type and mutant kinases (313 kinase panel) (Homo sapiens, UniProt P07949, Y791F)
panel of more than 300 wild-type and mutant kinases (313 kinase panel) (Homo sapiens, UniProt P07949, Y791F), sequence (P07949 29-1114 Y791F): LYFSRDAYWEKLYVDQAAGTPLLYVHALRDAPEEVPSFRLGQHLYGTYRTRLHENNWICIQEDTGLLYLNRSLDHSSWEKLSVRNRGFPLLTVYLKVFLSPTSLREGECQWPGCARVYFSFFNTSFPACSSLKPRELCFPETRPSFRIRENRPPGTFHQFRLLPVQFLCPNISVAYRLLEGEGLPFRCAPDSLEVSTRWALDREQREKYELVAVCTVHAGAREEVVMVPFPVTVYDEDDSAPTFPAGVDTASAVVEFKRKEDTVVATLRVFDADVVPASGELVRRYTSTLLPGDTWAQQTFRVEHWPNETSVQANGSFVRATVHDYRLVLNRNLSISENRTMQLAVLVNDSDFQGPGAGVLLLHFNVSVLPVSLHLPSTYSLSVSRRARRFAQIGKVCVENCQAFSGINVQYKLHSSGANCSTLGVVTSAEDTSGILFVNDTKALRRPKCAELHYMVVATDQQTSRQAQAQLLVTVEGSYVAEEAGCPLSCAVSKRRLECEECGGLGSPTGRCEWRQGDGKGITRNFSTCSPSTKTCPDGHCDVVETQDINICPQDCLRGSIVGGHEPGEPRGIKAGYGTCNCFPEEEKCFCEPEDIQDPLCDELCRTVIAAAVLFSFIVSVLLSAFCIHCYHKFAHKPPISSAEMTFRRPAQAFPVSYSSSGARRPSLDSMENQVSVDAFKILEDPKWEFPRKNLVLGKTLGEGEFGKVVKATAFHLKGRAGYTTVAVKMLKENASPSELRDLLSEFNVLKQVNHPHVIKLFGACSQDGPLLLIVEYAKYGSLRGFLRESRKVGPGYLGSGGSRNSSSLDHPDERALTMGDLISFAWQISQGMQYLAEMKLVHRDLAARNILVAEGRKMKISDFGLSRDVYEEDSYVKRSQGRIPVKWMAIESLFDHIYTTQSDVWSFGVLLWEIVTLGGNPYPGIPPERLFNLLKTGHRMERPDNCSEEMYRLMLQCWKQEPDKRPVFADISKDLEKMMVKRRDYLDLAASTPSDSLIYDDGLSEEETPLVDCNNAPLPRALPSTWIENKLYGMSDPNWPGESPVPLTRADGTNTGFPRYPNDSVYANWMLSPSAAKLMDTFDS

[3] = molecular target: panel of more than 300 wild-type and mutant kinases (313 kinase panel) (Homo sapiens, UniProt P10721)
panel of more than 300 wild-type and mutant kinases (313 kinase panel) (Homo sapiens, UniProt P10721), sequence (P10721 26-976, change not shown): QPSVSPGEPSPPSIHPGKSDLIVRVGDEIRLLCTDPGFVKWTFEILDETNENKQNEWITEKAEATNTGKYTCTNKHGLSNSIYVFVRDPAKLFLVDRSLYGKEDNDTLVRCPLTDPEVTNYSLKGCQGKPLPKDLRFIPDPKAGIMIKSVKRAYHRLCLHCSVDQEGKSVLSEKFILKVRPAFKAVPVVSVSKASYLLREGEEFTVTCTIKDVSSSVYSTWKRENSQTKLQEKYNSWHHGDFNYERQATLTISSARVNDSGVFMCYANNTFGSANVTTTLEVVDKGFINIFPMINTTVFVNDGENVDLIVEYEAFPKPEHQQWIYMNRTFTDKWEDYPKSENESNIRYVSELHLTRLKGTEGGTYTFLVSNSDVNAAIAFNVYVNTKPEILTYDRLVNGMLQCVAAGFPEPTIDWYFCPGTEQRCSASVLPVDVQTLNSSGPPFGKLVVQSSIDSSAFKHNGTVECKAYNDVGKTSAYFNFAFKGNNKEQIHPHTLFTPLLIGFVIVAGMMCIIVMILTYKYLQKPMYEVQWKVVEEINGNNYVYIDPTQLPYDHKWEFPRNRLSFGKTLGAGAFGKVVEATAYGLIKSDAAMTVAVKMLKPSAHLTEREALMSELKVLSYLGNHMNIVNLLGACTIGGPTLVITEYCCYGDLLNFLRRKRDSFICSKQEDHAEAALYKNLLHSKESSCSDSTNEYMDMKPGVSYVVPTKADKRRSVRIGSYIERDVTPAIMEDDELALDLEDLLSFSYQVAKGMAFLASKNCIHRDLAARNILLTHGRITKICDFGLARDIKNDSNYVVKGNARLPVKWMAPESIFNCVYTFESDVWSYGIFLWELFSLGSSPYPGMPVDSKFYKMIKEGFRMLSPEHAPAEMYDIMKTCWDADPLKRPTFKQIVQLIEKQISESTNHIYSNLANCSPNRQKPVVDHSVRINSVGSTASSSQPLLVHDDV

[4] = molecular target: panel of more than 300 wild-type and mutant kinases (313 kinase panel) (Homo sapiens, UniProt P23458)
[5] = molecular target: panel of more than 300 wild-type and mutant kinases (313 kinase panel) (Homo sapiens, UniProt P17252)
[6] = molecular target: T1, panel of more than 300 wild-type and mutant kinases (313 kinase panel) (Homo sapiens, UniProt P53778)
T1 sequence (P53778 1-367): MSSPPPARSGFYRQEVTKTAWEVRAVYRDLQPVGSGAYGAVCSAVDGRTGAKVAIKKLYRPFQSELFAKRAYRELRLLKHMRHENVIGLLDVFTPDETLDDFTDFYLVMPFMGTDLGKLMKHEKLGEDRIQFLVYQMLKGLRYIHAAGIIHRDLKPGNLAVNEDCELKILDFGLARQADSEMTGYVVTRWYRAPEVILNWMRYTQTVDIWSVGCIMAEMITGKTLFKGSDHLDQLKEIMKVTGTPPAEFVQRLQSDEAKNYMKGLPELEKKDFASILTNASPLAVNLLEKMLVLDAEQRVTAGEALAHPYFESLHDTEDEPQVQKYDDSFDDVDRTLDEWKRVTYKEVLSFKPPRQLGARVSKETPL

[7] = molecular target: panel of more than 300 wild-type and mutant kinases (313 kinase panel) (Homo sapiens, UniProt P05771)
[8] = molecular target: panel of more than 300 wild-type and mutant kinases (313 kinase panel) (Homo sapiens, UniProt Q9H4B4)
panel of more than 300 wild-type and mutant kinases (313 kinase panel) (Homo sapiens, UniProt Q9H4B4), sequence (Q9H4B4 whole entry, change not shown): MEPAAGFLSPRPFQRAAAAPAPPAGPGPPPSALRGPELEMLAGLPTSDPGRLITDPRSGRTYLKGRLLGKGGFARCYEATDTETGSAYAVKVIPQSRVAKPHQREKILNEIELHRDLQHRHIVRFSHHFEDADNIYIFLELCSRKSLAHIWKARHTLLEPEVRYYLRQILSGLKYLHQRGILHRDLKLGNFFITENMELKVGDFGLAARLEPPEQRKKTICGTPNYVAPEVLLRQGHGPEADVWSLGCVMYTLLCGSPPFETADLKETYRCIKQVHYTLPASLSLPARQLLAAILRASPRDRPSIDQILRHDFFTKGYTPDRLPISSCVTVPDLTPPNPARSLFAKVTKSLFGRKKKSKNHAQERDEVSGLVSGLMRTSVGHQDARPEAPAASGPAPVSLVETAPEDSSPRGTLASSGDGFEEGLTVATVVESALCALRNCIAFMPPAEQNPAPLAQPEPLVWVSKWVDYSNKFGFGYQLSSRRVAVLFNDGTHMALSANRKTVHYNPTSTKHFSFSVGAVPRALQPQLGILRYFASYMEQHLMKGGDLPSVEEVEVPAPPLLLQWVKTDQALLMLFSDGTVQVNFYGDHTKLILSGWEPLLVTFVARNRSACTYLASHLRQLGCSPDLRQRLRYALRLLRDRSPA

[9] = molecular target: panel of more than 300 wild-type and mutant kinases (313 kinase panel) (Homo sapiens, UniProt P45984)
panel of more than 300 wild-type and mutant kinases (313 kinase panel) (Homo sapiens, UniProt P45984), sequence (P45984 whole entry, change not shown): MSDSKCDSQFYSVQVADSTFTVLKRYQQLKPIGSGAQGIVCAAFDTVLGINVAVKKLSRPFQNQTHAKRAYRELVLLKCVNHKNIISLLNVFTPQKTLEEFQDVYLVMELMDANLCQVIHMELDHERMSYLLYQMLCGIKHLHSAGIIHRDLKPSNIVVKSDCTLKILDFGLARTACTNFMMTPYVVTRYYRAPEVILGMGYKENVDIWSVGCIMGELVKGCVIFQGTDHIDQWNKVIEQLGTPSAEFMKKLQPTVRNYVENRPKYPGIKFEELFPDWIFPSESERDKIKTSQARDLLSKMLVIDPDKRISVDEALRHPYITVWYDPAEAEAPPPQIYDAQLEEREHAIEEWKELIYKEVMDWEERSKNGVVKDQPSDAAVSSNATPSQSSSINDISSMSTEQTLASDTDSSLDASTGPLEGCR

[10] = molecular target: T2, panel of more than 300 wild-type and mutant kinases (313 kinase panel) (Homo sapiens, UniProt P51955)
T2 sequence (P51955 1-445): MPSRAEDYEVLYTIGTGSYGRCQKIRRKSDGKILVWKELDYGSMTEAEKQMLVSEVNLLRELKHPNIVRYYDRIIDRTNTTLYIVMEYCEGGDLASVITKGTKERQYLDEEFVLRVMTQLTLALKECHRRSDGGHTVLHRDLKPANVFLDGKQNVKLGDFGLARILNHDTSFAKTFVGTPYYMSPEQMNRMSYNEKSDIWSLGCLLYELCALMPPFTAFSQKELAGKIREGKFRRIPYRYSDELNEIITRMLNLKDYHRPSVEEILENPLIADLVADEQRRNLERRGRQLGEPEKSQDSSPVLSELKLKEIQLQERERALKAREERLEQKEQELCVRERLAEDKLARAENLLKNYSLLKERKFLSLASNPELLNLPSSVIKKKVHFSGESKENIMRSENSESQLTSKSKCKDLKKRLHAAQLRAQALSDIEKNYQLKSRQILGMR

[11] = molecular target: T3, panel of more than 300 wild-type and mutant kinases (313 kinase panel) (Homo sapiens, UniProt O14965)
T3 sequence (O14965 1-403): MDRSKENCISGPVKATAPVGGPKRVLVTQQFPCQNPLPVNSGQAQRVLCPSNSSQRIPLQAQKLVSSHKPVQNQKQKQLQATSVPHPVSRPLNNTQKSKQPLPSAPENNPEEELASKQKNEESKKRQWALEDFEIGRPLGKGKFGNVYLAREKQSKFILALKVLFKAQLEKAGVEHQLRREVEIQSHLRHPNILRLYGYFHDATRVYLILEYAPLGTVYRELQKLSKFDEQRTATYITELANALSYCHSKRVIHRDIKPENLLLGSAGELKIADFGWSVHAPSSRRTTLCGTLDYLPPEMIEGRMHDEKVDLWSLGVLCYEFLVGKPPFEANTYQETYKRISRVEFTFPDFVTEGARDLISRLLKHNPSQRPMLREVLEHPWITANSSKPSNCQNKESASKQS

[12] = molecular target: panel of more than 300 wild-type and mutant kinases (313 kinase panel) (Homo sapiens, UniProt P22607, K650E)
[13] = molecular target: panel of more than 300 wild-type and mutant kinases (313 kinase panel) (Homo sapiens, UniProt Q96GD4)
panel of more than 300 wild-type and mutant kinases (313 kinase panel) (Homo sapiens, UniProt Q96GD4), sequence (Q96GD4 whole entry, change not shown): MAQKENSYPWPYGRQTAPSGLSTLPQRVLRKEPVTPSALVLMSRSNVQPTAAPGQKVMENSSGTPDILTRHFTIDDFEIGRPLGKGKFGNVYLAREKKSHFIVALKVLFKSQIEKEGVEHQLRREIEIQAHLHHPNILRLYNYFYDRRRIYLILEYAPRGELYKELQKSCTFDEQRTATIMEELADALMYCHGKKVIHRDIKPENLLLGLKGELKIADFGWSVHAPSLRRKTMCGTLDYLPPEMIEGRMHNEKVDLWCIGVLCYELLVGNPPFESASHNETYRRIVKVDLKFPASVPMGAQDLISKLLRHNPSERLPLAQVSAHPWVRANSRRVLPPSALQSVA

[14] = molecular target: panel of more than 300 wild-type and mutant kinases (313 kinase panel) (Homo sapiens, UniProt P45983)
panel of more than 300 wild-type and mutant kinases (313 kinase panel) (Homo sapiens, UniProt P45983), sequence (P45983 whole entry, change not shown): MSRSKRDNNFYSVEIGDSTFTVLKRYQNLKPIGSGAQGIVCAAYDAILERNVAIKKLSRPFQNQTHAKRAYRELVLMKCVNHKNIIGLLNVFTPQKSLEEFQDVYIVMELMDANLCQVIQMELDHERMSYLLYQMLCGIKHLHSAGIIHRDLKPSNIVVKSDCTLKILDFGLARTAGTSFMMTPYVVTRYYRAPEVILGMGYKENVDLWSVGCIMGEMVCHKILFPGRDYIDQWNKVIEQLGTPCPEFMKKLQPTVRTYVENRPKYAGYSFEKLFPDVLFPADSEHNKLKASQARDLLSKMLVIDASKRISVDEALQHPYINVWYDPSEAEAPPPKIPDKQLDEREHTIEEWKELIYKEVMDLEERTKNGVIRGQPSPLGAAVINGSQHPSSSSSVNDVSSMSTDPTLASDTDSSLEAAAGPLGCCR

[15] = kinase AurA/TPX2, 1 μM compound
[16] = kinase FGFR3(K650E), compound at 1 μM

| SMILES | %-inhibition of SRC ([1]; kinase SRC, 1 μM) [%] | %-inhibition of RET(Y791F) ([2]; kinase RET(Y791F), 1 μM) [%] | %-inhibition of KIT ([3]; kinase KIT, compound at 1 μM) [%] | %-inhibition of JAK1 ([4]; kinase JAK1, compound at 1 μM) [%] | %-inhibition of PKCα ([5]; kinase PKCα, 1 μM) [%] | %-inhibition of p38γ ([6]; kinase p38γ, 1 μM) [%] | %-inhibition of PKCβ1 ([7]; kinase PKCβ1, 1 μM) [%] | %-inhibition of PLK3 ([8]; kinase PLK3, 1 μM) [%] | %-inhibition of JNK2 ([9]; kinase JNK2, compound at 1 μM) [%] | %-inhibition of NEK2 ([10]; kinase NEK2, 1 μM) [%] | %-inhibition, AurA/TPX2 [11, 15] [%] | %-inhibition, AurA ([11]; kinase AurA, 1 μM compound) [%] | %-inhibition of FGFR3(K650E) [12, 16] [%] | %-inhibition, AurB ([13]; kinase AurB, 1 μM compound) [%] | %-inhibition of JNK1 ([14]; kinase JNK1, compound at 1 μM) [%] | further results |
| --- | --- | --- | --- | --- | --- | --- | --- | --- | --- | --- | --- | --- | --- | --- | --- | --- |
| COc1cc(Nc2c(C#N)cnc3cc(OCCCN4CCN(C)CC4)c(OC)cc23)c(Cl)cc1Cl [bosutinib] | 96 | 93 | 23 | -2 | 54 | -6 | 3.68 | 0.877 | – | – | – | – | – | – | – | – |
| COc1cc2nccc(Oc3ccc(NC(=O)C4(C(=O)Nc5ccc(F)cc5)CC4)cc3)c2cc1OC [cabozantinib] | 92 | – | 97 | -1.59 | -8.47 | 23 | 1.48 | -1.07 | 4 | -0.384 | 29 | 54 | 26 | 89 | -2.85 | – |
| C[C@@H](Oc1cc(-c2cnn(C3CCNCC3)c2)cnc1N)c1c(Cl)ccc(F)c1Cl [crizotinib] | – | – | 16 | 47 | -8.47 | – | -3 | -2.24 | -2.59 | -2.69 | – | – | 52 | – | 0.431 | – |
| CC(C)(C)c1nc(-c2cccc(NS(=O)(=O)c3c(F)cccc3F)c2F)c(-c2ccnc(N)n2)s1 [dabrafenib] | 68 | 36 | 59 | 5.7 | – | 0.311 | – | – | -0.947 | – | – | – | 5 | 39 | -1.12 | – |
| Cc1nc(Nc2ncc(C(=O)Nc3c(C)cccc3Cl)s2)cc(N2CCN(CCO)CC2)n1 [dasatinib] | – | – | – | – | – | – | – | 10 | – | – | 22 | – | – | – | – | – |
| C#Cc1cccc(Nc2ncnc3cc(OCCOC)c(OCCOC)cc23)c1 [erlotinib] | – | – | – | – | – | – | – | – | – | – | – | – | – | – | – | %-inhibition of JNK2 ([9]; 1 µM): 13%; %-inhibition of SRC ([1]; 1 µM): 46%; %-inhibition of RET(Y791F) ([2]; 1 µM): 70%; %-inhibition of KIT ([3]; 1 µM): 32%; %-inhibition of JAK1 ([4]; 1 µM): 8%; %-inhibition of PKCα ([5]; 1 µM): 8%; %-inhibition of NEK2 ([10]; 1 µM): -0.556%; %-inhibition, AurA ([11]; 1 µM): 29%; %-inhibition, AurA/TPX2 ([11]; 1 µM): 1.46%; %-inhibition of FGFR3(K650E) ([12]; 1 µM): 80%; %-inhibition, AurB ([13]; 1 µM): 25%; %-inhibition of JNK1 ([14]; 1 µM): 1.68%; %-inhibition of p38γ ([6]; 1 µM): 4.5%; %-inhibition of PKCβ1 ([7]; 1 µM): 6%; %-inhibition of PLK3 ([8]; 1 µM): 6% |
| O=S(=O)(c1cccc2cnccc12)N1CCCNCC1 [fasudil] | -5 | 1 | -0.648 | -1.43 | – | 1.68 | 16 | -4.66 | -5 | -1 | -1.11 | -2 | -0.641 | 1 | -5.43 | – |
| Cc1ccc(Nc2nccc(N(C)c3ccc4c(C)n(C)nc4c3)n2)cc1S(N)(=O)=O [pazopanib] | 67 | 94 | 95 | 9 | 6 | -5 | -4.7 | 9 | – | 27 | – | – | – | 45 | – | – |
| Cc1ccc(C(=O)Nc2ccc(CN3CCN(C)CC3)c(C(F)(F)F)c2)cc1C#Cc1cnc2cccnn12 [ponatinib] | 102 | 102 | – | 99 | -3.29 | 86 | -5.61 | -11 | – | – | -3.42 | 9 | 101 | 46 | – | – |
| N#CC[C@H](C1CCCC1)n1cc(-c2ncnc3[nH]ccc23)cn1 [ruxolitinib] | 16 | – | 3 | – | 8 | -2.39 | 1.35 | 13 | -6 | -4 | 63 | – | 16 | 24 | -3 | – |
| CCN(CC)CCNC(=O)c1c(C)[nH]c(/C=C2\C(=O)Nc3ccc(F)cc32)c1C [sunitinib] | – | – | – | – | – | – | – | – | – | – | 72 | 81 | 96 | – | – | – |
| COc1cc2c(Nc3ccc(Br)cc3F)ncnc2cc1OCC1CCN(C)CC1 [vandetanib] | – | – | – | -3.31 | -0.27 | -3.79 | -6 | -6 | -4 | -7.42 | – | – | – | 23 | -0.604 | – |
